In US7361671B2, “Substituted heteroarylalkanoic acids” (The Institute for Pharmaceutical Discovery, Inc., priority 2001, dated 2008):
Counter-ions that a name gives are not always drawn.

Target: human aldose reductase (hALR2) (Homo sapiens, UniProt P15121)
Experiment: inhibition of human aldose reductase (hALR2) activity, methods similar to Butera et al.
Format: biochemical
Details: concentration to inhibit activity by 50%, read-out: hAR-#1 (aldose)
Protocol: Representative compounds of the invention are tested for their potency, selectivity and efficacy as inhibitors of human aldose reductase. […] Using this assay, the concentrations required to inhibit human aldose reductase (hALR2) activity by 50% (IC50) are determined.

| Compound | IC50 [nM] |
| --- | --- |
| Cc1c(CC(=O)O)csc1Cc1nc2c(F)c(F)cc(F)c2s1 [Example 24, [4-methyl-5-(4,5,7-trifluoro-benzothiazol-2-ylmethyl)-thiophen-3-yl]-acetic acid] | 31 |
| O=C(O)Cc1cncc(Cc2nc3c(F)c(F)cc(F)c3s2)c1 [Example 8, 5-(4,5,7-trifluoro-benzothiazol-2-ylmethyl)-pyridin-3-yl-acetic acid hydrochloride] | 8 |
| O=C(O)Cc1cc(Cc2nc3c(F)c(F)cc(F)c3s2)cnc1-c1ccccc1 [Example 13, 2-phenyl-5-(4,5,7-trifluoro-benzothiazol-2-ylmethyl)-pyridin-3-yl-acetic acid hydrochloride] | 8 |
| CCc1ncc(Cc2nc3c(F)c(F)cc(F)c3s2)cc1CC(=O)O [Example 11, 2-ethyl-5-(4,5,7-trifluoro-benzothiazol-2-ylmethyl)-pyridin-3-yl-acetic acid hydrochloride] | 6 |
| Cc1nc(C)c(Cc2nc3c(F)c(F)cc(F)c3s2)c(C)c1CC(=O)O [Example 9, 2,4,6-trimethyl-5-(4,5,7-trifluoro-benzothiazol-2-ylmethyl)-pyridin-3-yl-acetic acid hydrochloride] | 6 |
| O=C(O)Cc1cc(Cc2nc3c(F)c(F)cc(F)c3s2)cnc1Cc1ccccc1 [Example 12, 2-benzyl-5-(4,5,7-trifluoro-benzothiazol-2-ylmethyl)-pyridin-3-yl-acetic acid hydrochloride] | 5 |
| O=C(O)Cc1cnc(Cc2ccccc2)c(Cc2nc3c(F)c(F)cc(F)c3s2)c1 [Example 16, 6-Benzyl-5-(4,5,7-trifluoro-benzothiazol-2-ylmethyl)-pyridin-3-yl-acetic acid hydrochloride] | 7 |
| CCc1c(CC(=O)O)c(C)nc(C)c1Cc1nc2c(F)c(F)cc(F)c2s1 [Example 10, 2,6-dimethyl-4-ethyl-5-(4,5,7-trifluoro-benzothiazol-2-ylmethyl)-pyridin-3-yl-acetic acid hydrochloride] | 31 |
| Cc1ccc2c(Cc3nc4c(F)c(F)cc(F)c4s3)cn(CC(=O)O)c2n1 [Example 2, [6-methyl-3-(4,5,7-trifluoro-benzothiazol-2-ylmethyl)-pyrrolo[2,3-b]pyridin-1-yl]-acetic acid] | 8 |
| O=C(O)Cc1csc(Cc2nc3c(F)c(F)cc(F)c3s2)n1 [Example 25, [2-(4,5,7-Trifluoro-benzothiazol-2-ylmethyl)-thiazol-4-yl]-acetic acid] | 130 |
| O=C(O)Cc1cnc(-c2ccccc2)c(Cc2nc3c(F)c(F)cc(F)c3s2)c1 [Example 15, 6-Phenyl-5-(4,5,7-trifluoro-benzothiazol-2-ylmethyl)-pyridin-3-yl-acetic acid hydrochloride] | 6 |
